Reference: patent US20240189240A1, “PHARMACEUTICAL COMPOSITIONS COMPRISING ZOLMITRIPTAN” (MapLight Therapeutics, Inc., priority 2021, published 2024)

Tests used:
[1] = CSF levels after i.p. dosing in c57/Bl6 mice; type: in vivo, mouse
[2] = CSF levels after i.p. dosing in CD-1 mice; conditions: zolmitriptan 3 and 10 mg/kg i.p., male CD-1 mice
[3] = biological target: 5-HT1b receptor (Homo sapiens, UniProt P28222); test: 5-HT1b receptor occupancy and efficacy model, human dose estimate
Description: Specifically, 5-HT1b receptor occupancy and efficacy models measured potency of zolmitriptan and NMDZ at the 5-HT1b receptor and the ratio of zolmitriptan: NDMZ in human CSF. The 5-HT1b receptor efficacy model was used to predict the level of 5-HT1b activation (i.e., efficacy) by both zolmitriptan and NDMZ based on the concentration of zolmitriptan in the CSF. From this target zolmitriptan dose ranges required to achieve an effective CSF exposures in humans were calculated.
Using classical receptor theory, the receptor occupancy when considering two ligands (i.e., entities) can be predicted using the following relationship:
Total % occupancy=(% occupancy by A)+{[100%−(% occupancy by A)]×(% occupancy by B)} when considering a fixed concentration of both A and B.
Total % Efficacy={[Zolmitriptan]/([Zolmitriptan]+Ki,Z)}+(100−{[Zolmitriptan]/([Zolmitriptan]+Ki,Z)}×{[NDMZ]/([NDMZ]+Ki,N)}

[4] = tested on: CD-1 mice; test: Resident-Intruder (RI) assay of aggression; type: in vivo, mouse; conditions: 10 mg/kg
Description: Correspondingly, the RI assay has been used preclinically to study the effect of drugs on rodent aggression (Miczek et al., 2001). The RI assay typically relies on the interpretation and scoring of offensive (resident animal) behavior patterns and may also include analysis of defensive (intruder animal) behavior patterns as well. […] Attack time was measured over a 5 min period as a cross over design.

[5] = biological target: T1, rat recombinant 5-HT1b (r5-HT1b) receptors (Rattus norvegicus, UniProt P28564); test: SPA-based 35S-GTPγS binding assay (functional); type: biochemical
T1 construct: expressed in transfected cells
T1 sequence (P28564 whole entry): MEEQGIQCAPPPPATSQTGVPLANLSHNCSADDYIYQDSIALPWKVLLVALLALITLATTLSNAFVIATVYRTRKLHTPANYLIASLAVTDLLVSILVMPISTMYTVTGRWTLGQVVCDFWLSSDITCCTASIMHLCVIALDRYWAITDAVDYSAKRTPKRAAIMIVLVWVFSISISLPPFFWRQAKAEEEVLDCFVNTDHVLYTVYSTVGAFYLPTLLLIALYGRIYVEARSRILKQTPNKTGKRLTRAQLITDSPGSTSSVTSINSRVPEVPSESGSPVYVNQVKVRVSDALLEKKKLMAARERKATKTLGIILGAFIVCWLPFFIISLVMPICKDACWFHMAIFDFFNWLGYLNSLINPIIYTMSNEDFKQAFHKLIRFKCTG
Description: In this study in vitro binding assays were conducted to measure the affinity of zolmitriptan and its active metabolite NDMZ to rat and human 5-HT1B receptors.
Zolmitriptan was tested in a SPA-based 35S-GTPγS binding assay in cells expressing human 5-HT1b (h5-HT1b) receptors or rat recombinant 5-HT1b (r5-HT1b) receptors at ten concentrations in duplicate.

Sequence of 5-HT1b receptor (P28222 whole entry): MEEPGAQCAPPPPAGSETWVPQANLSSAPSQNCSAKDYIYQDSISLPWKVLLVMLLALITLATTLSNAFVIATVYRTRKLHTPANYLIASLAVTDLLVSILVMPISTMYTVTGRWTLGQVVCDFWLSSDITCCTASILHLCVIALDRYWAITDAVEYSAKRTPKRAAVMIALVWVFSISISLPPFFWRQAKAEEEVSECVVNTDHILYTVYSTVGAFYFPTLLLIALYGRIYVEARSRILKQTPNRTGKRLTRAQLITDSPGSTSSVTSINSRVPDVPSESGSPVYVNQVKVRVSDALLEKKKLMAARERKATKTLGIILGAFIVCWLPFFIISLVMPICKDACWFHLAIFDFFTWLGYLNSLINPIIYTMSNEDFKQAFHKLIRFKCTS

| Compound | metabolite level in CSF after zolmitriptan dosing ([1]; zolmitriptan 10 mg/kg i.p., male c57/Bl6 mice) | metabolite level after zolmitriptan dosing [2] | CSF levels required for a therapeutic effect in humans, lower than in mice ([3]; based on human vs rat 5-HT1b EC50) | concentration for 50% Total Efficacy relative to the zolmitriptan EC50 ([3]; combined effect of the metabolite) [fold] | EC50 ([3]; read-out: concentration of zolmitriptan in human CSF predicted to induce 50% efficacy (EC50) of 5-HT1b by zolmitriptan and NDMZ, model, zolmitriptan: NDMZ 1.0:0.75) [nM] | reduction in attack time compared to risperidone (0.03 mg/kg) and vehicle control [4] | activity in GTPgS at CSF Cmax (EC36) ([5]; CSF Cmax 18.8 nM, CD-1 mice, 3 mg/Kg i.p.) [%] | activity in GTPgS at CSF Cmax (EC65) ([5]; CSF Cmax 62 nM, c57/Bl6 mice, 10 mg/Kg i.p.) [%] | CSF Cmax ([1]; 10 mg/Kg i.p., c57/Bl6 ASD mouse model) [µM] |
| --- | --- | --- | --- | --- | --- | --- | --- | --- | --- |
| CNCCc1c[nH]c2ccc(C[C@H]3COC(=O)N3)cc12 [NDMZ, N-desmethyl zolmitriptan] | below the lower limit of quantification | below the lower limit of quantification |  |  |  |  |  |  |  |
| CN(C)CCc1c[nH]c2ccc(C[C@H]3COC(=O)N3)cc12 [Zolmitriptan, (4S)-4-[[3-[2-(dimethylamino)ethyl]-1H-indol-5-yl]methyl]-1,3-oxazolidin-2-one] |  |  | about 8.3 fold | 3.7 | 1.09 | greater reduction in attack time | 36 | 65 | 0.062 |
